# Test results from patent US20210077559A1, “Treating Autoimmune Disorders with Acetylcholinesterase Inhibitors” (priority 2018, published 2021).
# Columns and labels:
# [1] = tested on: Demodex mites; assay: In vitro Demodex survival time assay; details: in vitro assay (FIG. 3 and 4)
# Protocol: FIG. 4 summarizes the activity of 10% chloroquine in water relative to a water control on activity against Demodex mites in an in vitro assay, with an LT50 of 31.6 hours for chloroquine compared to 44.8 hours for the water control, illustrating the inactivation effect of chloroquine on Demodex.
# Example 4: In vitro efficacy and mite lifetimes: Relative efficacy of various formulations are evaluated with a Demodex survival time experiments. FIG. 3 tabulates Demodex survival time, expressed in terms of LT50 (time at which 50% of Demodex mites are killed) and/or average minutes to death for various active agents.
# [2] = tested on: Demodex mites; details: dichlorvos 1%, one patient; PCT Pub. No. WO 2015/017328; cited from earlier work
SMILES,activity against Demodex mites [1],remission of Papulopostular Rosacea (PPR) [2]
CCN(CC)CCCC(C)Nc1ccnc2cc(Cl)ccc12 (centres unmarked) [chloroquine],has activity against Demodex mites,–
COP(=O)(OC)OC=C(Cl)Cl [dichlorvos],–,complete and continued remission
